{"source": "patent US20070160574A1", "about": "“Design of CXC chemokine analogs for the treatment of human diseases” (priority 2000, published 2007)", "molecules": {"B1": {"name": "rBRAK: recombinant BRAK (CXCL14 chemokine) (protein, UniProt O95715 35-111, looked up)", "C-X-C motif chemokine 14": "SKCKCSRKGPKIRYSDVKKLEMKPKYPHCEEKMVIITTKSVSRYRGQEHCLHPKLQSTKRFIKWYNAWNEKRRVYEE"}}, "note": "Non-standard residues stand in square brackets, D forms with d. No end group written: not given here. Aun = NCCCCCCCCCCC(=O)O"}
{"target": "T1, CXCR3 receptor (CXCR-3/300-19 cells) (Homo sapiens, UniProt P49682)", "T1 construct": "expressed in transfected cells; host or cells: 300-19 mouse pre-B lymphocytes (CXCR-3/300-19)", "T1 sequence (P49682 1-368)": "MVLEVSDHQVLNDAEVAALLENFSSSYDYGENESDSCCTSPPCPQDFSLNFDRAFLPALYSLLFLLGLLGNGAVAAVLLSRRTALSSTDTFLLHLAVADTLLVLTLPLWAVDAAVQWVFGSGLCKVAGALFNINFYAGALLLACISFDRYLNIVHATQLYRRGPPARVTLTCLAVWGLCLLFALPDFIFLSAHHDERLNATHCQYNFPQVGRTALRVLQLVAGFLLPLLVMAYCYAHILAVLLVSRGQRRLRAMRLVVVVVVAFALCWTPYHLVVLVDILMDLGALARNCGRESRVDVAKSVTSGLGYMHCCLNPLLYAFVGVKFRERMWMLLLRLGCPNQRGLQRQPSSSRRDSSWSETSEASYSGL", "assay": "[Ca2+]i mobilization by IP-10 analogs, FLIPR Calcium 3 kit, CXCR-3/300-19 cells", "type": "cell-based", "conditions": "100 μM (FIG. 1); three independent experiments", "description": "(§1) Binding and Calcium Mobilization: Suspensions of CXCR-3/300-19 cells were used to assess binding and intracellular calcium mobilization induced by IP-10 analogs. These are mouse pre-B lymphocytes transfected with the CXCR3 receptor, (Moser, et al). The cells were washed in RPMI media and resuspended in RPMI media supplemented with 10% FCS, then plated at 1.2×10^5 cells per well of 96-well black wall/clear bottom plates coated with poly-D-lysine (Becton Dickinson) and loaded with 100 uL fluorescent calcium indicator FLIPR Calcium 3 assay kit component A (Molecular Probes) for 1 hr at 37° C. The cells on the plates were then spun at 1000 rpm for 15 minutes at room temperature.\n(§2) Each of the sequences successfully bound to the cellular receptors. The intracellular calcium mobilization in response to 25 uL (0-100000 nM final concentrations) of the appropriate and various concentrations of analogue was measured at 37° C. by monitoring fluorescence as a function of time in all the wells using the Flexstation Fluorometric Imaging Plate Reader (Molecular Devices). All analogues were run simultaneously with rhIP-10 (R&D Systems) as the standard. Table 7 provides the dosage effect of the binding of each of the IP-10 analogs on the calcium mobilization activity of the cells.", "units": {"increase in intracellular calcium mobilization": "%"}}
{"molecule": "acetylated-IP-10-(1-16)-[linker]-IP-10-(66-78) (Ac-VPLSRTVRCTCISISN[Aun]LKAVSKEMSKRSP; cysteine pairing not given here) [SEQ ID NO:1641, IP-10 analog, numbering of U.S. App; 11/590,210]", "increase in intracellular calcium mobilization": "~500"}
{"target": "T1, CXCR3 receptor (CXCR-3/300-19 cells)", "assay": "[Ca2+]i mobilization by IP-10 analogs, FLIPR Calcium 3 kit, CXCR-3/300-19 cells", "type": "cell-based", "conditions": "dosage 1.2 μM; CXCR-3/300-19 cells", "description": "as §1, §2", "units": {"calcium mobilization activity of the cells": "%"}}
{"molecule": "acetylated-IP-10-(1-16)-[linker]-IP-10-(66-78) (Ac-VPLSRTVRCTCISISN[Aun]LKAVSKEMSKRSP; cysteine pairing not given here) [SEQ ID NO:1641, IP-10 analog, numbering of U.S. App; 11/590,210]", "calcium mobilization activity of the cells": 12.6}
{"target": "T1, CXCR3 receptor (CXCR-3/300-19 cells)", "assay": "[Ca2+]i mobilization by IP-10 analogs, FLIPR Calcium 3 kit, CXCR-3/300-19 cells", "type": "cell-based", "conditions": "dosage 3.7 μM; CXCR-3/300-19 cells", "description": "as §1, §2", "units": {"calcium mobilization activity of the cells": "%"}}
{"molecule": "acetylated-IP-10-(1-16)-[linker]-IP-10-(66-78) (Ac-VPLSRTVRCTCISISN[Aun]LKAVSKEMSKRSP; cysteine pairing not given here) [SEQ ID NO:1641, IP-10 analog, numbering of U.S. App; 11/590,210]", "calcium mobilization activity of the cells": 12.7}
{"target": "T1, CXCR3 receptor (CXCR-3/300-19 cells)", "assay": "[Ca2+]i mobilization by IP-10 analogs, FLIPR Calcium 3 kit, CXCR-3/300-19 cells", "type": "cell-based", "conditions": "dosage 11.1 μM; CXCR-3/300-19 cells", "description": "as §1, §2", "units": {"calcium mobilization activity of the cells": "%"}}
{"molecule": "acetylated-IP-10-(1-16)-[linker]-IP-10-(66-78) (Ac-VPLSRTVRCTCISISN[Aun]LKAVSKEMSKRSP; cysteine pairing not given here) [SEQ ID NO:1641, IP-10 analog, numbering of U.S. App; 11/590,210]", "calcium mobilization activity of the cells": 14.1}
{"target": "T1, CXCR3 receptor (CXCR-3/300-19 cells)", "assay": "[Ca2+]i mobilization by IP-10 analogs, FLIPR Calcium 3 kit, CXCR-3/300-19 cells", "type": "cell-based", "conditions": "dosage 33.3 μM; CXCR-3/300-19 cells", "description": "as §1, §2", "units": {"calcium mobilization activity of the cells": "%"}}
{"molecule": "acetylated-IP-10-(1-16)-[linker]-IP-10-(66-78) (Ac-VPLSRTVRCTCISISN[Aun]LKAVSKEMSKRSP; cysteine pairing not given here) [SEQ ID NO:1641, IP-10 analog, numbering of U.S. App; 11/590,210]", "calcium mobilization activity of the cells": 20}
{"target": "T1, CXCR3 receptor (CXCR-3/300-19 cells)", "assay": "[Ca2+]i mobilization by IP-10 analogs, FLIPR Calcium 3 kit, CXCR-3/300-19 cells", "type": "cell-based", "conditions": "dosage 100 μM; CXCR-3/300-19 cells", "description": "as §1, §2", "units": {"calcium mobilization activity of the cells": "%"}}
{"molecule": "acetylated-IP-10-(1-16)-[linker]-IP-10-(66-78) (Ac-VPLSRTVRCTCISISN[Aun]LKAVSKEMSKRSP; cysteine pairing not given here) [SEQ ID NO:1641, IP-10 analog, numbering of U.S. App; 11/590,210]", "calcium mobilization activity of the cells": 52.9}
{"tested_on": "SUP-T1 cells", "assay": "not given", "type": "cell-based, human", "conditions": "not given", "description": "The experiments include contacting an SDF-1 mimetic with a cell. For the experiments, SUP-T1 cells (ATCC) were plated on the day of the experiment using 1.2×10^5 cells per well in 96-well black-wall/clear-bottom plates coated with poly-D-lysine (BD Biosciences) and loaded using a fluorescent calcium indicator. The indicator used was from a FLIPR Calcium 3 assay kit, component A, (Molecular Probes) and was loaded in the cell for 1 hr at 37° C. The intracellular calcium mobilization in response to the appropriate analogue was measured at 37° C. by monitoring the fluorescence as a function of time simultaneously in all the wells using a Flexstation Fluorometric Imaging Plate Reader (Molecular Devices).", "units": {"EC50": "nM"}}
{"molecule": "KPVSLSYRAPFRFFGGGKLKWIQEYLEKALN-NH2 (C-terminus assumed) [SEQ ID NO: 6]", "EC50": 283}
{"molecule": "KPVSLSYRAPFRFFGGGRLKWIQEYLEKALN-NH2 (C-terminus assumed) [SEQ ID NO: 21]", "EC50": 361}
{"molecule": "KPVSLSYRAPFRFFGGKGLKWIQEYLEKALN-NH2 [SEQ ID NO: 5]", "EC50": 211}
{"molecule": "KPVSLSYRAPFRFFGGKKLKWIQEYLEKALN-NH2 (C-terminus assumed) [SEQ ID NO: 9]", "EC50": 225}
{"molecule": "KPVSLSYRAPFRFFGGRGLKWIQEYLEKALN-NH2 (C-terminus assumed) [SEQ ID NO: 20]", "EC50": 307}
{"molecule": "KPVSLSYRAPFRFFGGRRLKWIQEYLEKALN-NH2 [SEQ ID NO: 24]", "EC50": 173}
{"molecule": "KPVSLSYRAPFRFFGKGGLKWIQEYLEKALN-NH2 (C-terminus assumed) [SEQ ID NO: 4]", "EC50": 312}
{"molecule": "KPVSLSYRAPFRFFGKGKLKWIQEYLEKALN-NH2 (C-terminus assumed) [SEQ ID NO: 12]", "EC50": 307}
{"molecule": "KPVSLSYRAPFRFFGKKGLKWIQEYLEKALN-NH2 (C-terminus assumed) [SEQ ID NO: 8]", "EC50": 304}
{"molecule": "KPVSLSYRAPFRFFGKKKLKWIQEYLEKALN-NH2 (C-terminus assumed) [SEQ ID NO: 14]", "EC50": 92}
{"molecule": "KPVSLSYRAPFRFFGRGGLKWIQEYLEKALN-NH2 (C-terminus assumed) [SEQ ID NO: 19]", "EC50": 253}
{"molecule": "KPVSLSYRAPFRFFGRGRLKWIQEYLEKALN-NH2 [SEQ ID NO: 27]", "EC50": 4320}
{"molecule": "KPVSLSYRAPFRFFGRRGLKWIQEYLEKALN-NH2 [SEQ ID NO: 23]", "EC50": 202}
{"molecule": "KPVSLSYRAPFRFFGRRRLKWIQEYLEKALN-NH2 [SEQ ID NO: 29]", "EC50": 1870}
{"molecule": "KPVSLSYRAPFRFFKGGKLKWIQEYLEKALN-NH2 (C-terminus assumed) [SEQ ID NO: 10]", "EC50": 233}
{"molecule": "KPVSLSYRAPFRFFKGKGLKWIQEYLEKALN-NH2 [SEQ ID NO: 11]", "EC50": 228}
{"molecule": "KPVSLSYRAPFRFFKGKKLKWIQEYLEKALN-NH2 (C-terminus assumed) [SEQ ID NO: 15]", "EC50": 157}
{"molecule": "KPVSLSYRAPFRFFKKGGLKWIQEYLEKALN-NH2 (C-terminus assumed) [SEQ ID NO: 7]", "EC50": 281}
{"molecule": "KPVSLSYRAPFRFFKKGKLKWIQEYLEKALN-NH2 (C-terminus assumed) [SEQ ID NO: 16]", "EC50": 140}
{"molecule": "KPVSLSYRAPFRFFKKKGLKWIQEYLEKALN-NH2 (C-terminus assumed) [SEQ ID NO: 13]", "EC50": 137}
{"molecule": "KPVSLSYRAPFRFFKKKKLKWIQEYLEKALN-NH2 (C-terminus assumed) [SEQ ID NO: 17]", "EC50": 316}
{"molecule": "KPVSLSYRAPFRFFRGGGLKWIQEYLEKALN-NH2 (C-terminus assumed) [SEQ ID NO: 18]", "EC50": 219}
{"molecule": "KPVSLSYRAPFRFFRGGRLKWIQEYLEKALN-NH2 [SEQ ID NO: 25]", "EC50": 132}
{"molecule": "KPVSLSYRAPFRFFRGRGLKWIQEYLEKALN-NH2 [SEQ ID NO: 26]", "EC50": 248}
{"molecule": "KPVSLSYRAPFRFFRGRRLKWIQEYLEKALN-NH2 [SEQ ID NO: 30]", "EC50": 178}
{"molecule": "KPVSLSYRAPFRFFRRGGLKWIQEYLEKALN-NH2 (C-terminus assumed) [SEQ ID NO: 22]", "EC50": 171}
{"molecule": "KPVSLSYRAPFRFFRRGRLKWIQEYLEKALN-NH2 [SEQ ID NO: 31]", "EC50": 709}
{"molecule": "KPVSLSYRAPFRFFRRRGLKWIQEYLEKALN-NH2 [SEQ ID NO: 28]", "EC50": 597}
{"molecule": "KPVSLSYRAPFRFFRRRRLKWIQEYLEKALN-NH2 [SEQ ID NO: 32]", "EC50": 1120}
{"tested_on": "high affinity receptors on human immature monocyte-derived dendritic cells (iDCs)", "assay": "not given", "conditions": "cited from earlier work", "units": {"Kd": "nM"}}
{"molecule": "B1", "Kd": 2}
{"tested_on": "endothelial cell chemotaxis", "assay": "not given", "conditions": "in vitro; cited from earlier work", "units": {"concentration blocking endothelial cell chemotaxis (as low as)": "nmol/L"}}
{"molecule": "B1", "concentration blocking endothelial cell chemotaxis (as low as)": 1}
